Here are results for 2 compounds from patent US8883500B2, “Method of preparing adenosine-resistant anti-tumor T lymphocytes for adoptive immunotherapy” (Northeastern University, priority 2008, dated 2014).

Values joined by “and” are separate entries in the source; they are usually repeats but may differ in a detail not shown here. Identical values can stand only once.

One data set has as its system P815 mastocytoma. The data set can be described thus: Cytotoxicity assay, 51Cr release.
For data set [1], the system named is mixed lymphocyte culture of C57BL/6 and DBA/2 spleen cells (CTL). The data set can be described thus: IFN-γ levels in mixed lymphocyte culture supernatant (ELISA). The class given is cell-based, mice. Conditions: for IFN-γ levels in the culture supernatant, decreased to: primary mixed lymphocyte culture 5 days. On the procedure: (§1) Antigen-specific cytotoxic T cells were induced by allogenic mixed lymphocyte culture using spleen cells from C57BL/6 (H-2^b) and DBA/2 (H-2^d) mice. Spleen cells from DBA/2 mice were pretreated with 50 μg ml^−1 mitomycin C (Sigma; St. Louis, Mo.) for 30 min at 37° C. After washing three times by centrifugation, 2×10^6 DBA/2 spleen cells (stimulator) were mixed with 6×10^6 C57BL/6 spleen cells (responder) in 2 ml of RPMI1640 medium containing 10% fetal calf serum. The cells were cultured for 5 days in a 12 well plastic plate. In some experiments, CTL (2×10^6 cells) were restimulated on day 5 using mitomycin C-treated DBA/2 spleen cells (4×10^6 cells). The restimulated cells were cultured for additional 2 days, and were analyzed on day 7.
(§2) Culture supernatant was collected 5 days after the set up of mixed lymphocyte culture or 2 days after restimulation and was stored at 4° C. for subsequent measurement of interferon-γ (IFN-γ) levels. IFN-γ was quantified by ELISA (R&D Systems; Minneapolis, Minn.) according to manufacturer's instruction. Cells were incubated for additional 4 h in the presence of 1 μCi [3H] thymidine (American Radiolabeled Chemicals, St. Louis, Mo.) and radioactivity of incorporated thymidine was counted.
In general terms: ELISA stands for enzyme-linked immunosorbent assay.

The subject of the next data set is CD8+ T cells. The experiment in a line: Flowcytometric analysis (CD8 proportion, intracellular IFN-γ staining). The class given is cell-based, mice. Particulars: for reduction of IFN-γ producers: control CTL, agonist 10 μM. On the procedure: Cells recovered from mixed lymphocyte culture were labeled with phycoerythrin-conjugated anti-CD8, allophycocyanin-conjugated anti-CD4 and fluorescein-conjugated anti-CD69 mAb, and were analyzed by FACSCalibur (BD Biosciences). Cytokine production from CTL was analyzed by intracellular staining as described (Nishimura et al., 1999). After the stimulation with immobilized anti-CD3 and anti-CD28 mAb for 24 h, cells were further incubated in the presence of brefeldin A (10 μg ml^−1) for 2 h. Cells were fixed with 4% parafolmaldehyde-PBS for 15 min, permeabilized with permeabilizing buffer (50 mM NaCl, 5 mM EDTA, 0.02% NaN3, 0.5% Triton X-100, 10 mM Tris-HCl, pH 7.5) for 15 min, and stained with fluorescein-labeled anti-IFN-γ mAb. IFN-γ-producing CD8^+ cells were identified by cell surface staining using phycoerythrin-conjugated anti-CD8 mAb. All antibodies were obtained from BD Biosciences.

A further data set deals with CTL. The data set can be described thus: IFN-γ production from CTL restimulated by immobilized anti-CD3 and anti-CD28 mAbs (ELISA). Particulars: for IFN-γ levels: restimulation without agonist (None); for IFN-γ levels (%) of corresponding CTL without CGS/NECA: anti-CD3/anti-CD28 24 h in presence of the agonist (10 (unit uncertain)); for IFN-γ levels (%), None (reference = 100): no agonist at restimulation; for IFN-γ production: control CTL restimulated with anti-CD3 mAb, agonist 10 μM. In kind it is cell-based, mice. Details: IFN-γ levels (%) of corresponding CTL without CGS/NECA / IFN-γ levels (%), None (reference = 100): unit of the concentration uncertain. On the procedure: CTL (2×10^5 cells) were washed twice with media and restimulated by plate-bound anti-CD3 and anti-CD28 monoclonal antibodies (mAb) (BD Biosciences, San Diego, Calif.). Anti-CD3 mAb (2 μg ml^−1) and anti-CD28 mAb (1 μg ml^−1) diluted in PBS were immobilized in a flat-bottom 96-well plastic culture plate for 1 h at 37° C. before use. In order to examine anti-tumor cellular response, CTL (2×10^5 cells) were also cultured with mitomycin C-treated P815 mastocytoma (2.5×10^5 cells). […]. Culture supernatant after 24-48 h was assayed for IFN-γ levels by ELISA.

For data set [2], the system named is A2A/A2B adenosine receptor. The experiment in a line: cAMP assay in CTL. The class given is cell-based, mice. Particulars: control CTL; cAMP inducer 10 μM (FIG. 6 legend), 15 min. On the procedure:
Stimulation of cAMP production and measurement of cAMP levels were performed as described previously (Apasov et al., 2000). […]; from Tocris, Ellisville, Mo.), or forskolin (adenylate cyclase activator; from Sigma). […]
(In general: Changes in cAMP serve as a functional read-out for many G protein-coupled receptors.)

The test system of data set [3] is mixed lymphocyte culture of C57BL/6 and DBA/2 spleen cells (CTL). The experiment in a line: Mixed lymphocyte culture: cell proliferation ([3H] thymidine incorporation) and cell number. The class given is cell-based, mice. Particulars: for cell number, % of control: primary mixed lymphocyte culture 5 days. On the procedure:
as §1, §2
(Uptake of a labelled nucleoside into DNA is a usual measure of proliferation.)

The mark [4] stands for this setting: NECA (0.1-1 μM) added only for 2 days after restimulation of 5-day CTL.
Where [5] appears, read: CTL developed with NECA (0.1 (unit uncertain)).
Setting [6] is: CTL developed with NECA (1 (unit uncertain)).
Setting [7] is: CTL developed with NECA (10 (unit uncertain)).

Description for P815 mastocytoma: Cytotoxicity of T cells against P815 mastocytoma (H-2^d) was determined by ^51Cr release assay. Initially, P815 cells (2×10^6) were incubated with 100 μCi [^51Cr] sodium chromate (Perkin Elmer, Boston, Mass.) for 1 h at 37° C. The cells were washed for three times by centrifugation to remove excess radioactivity. The labeled P815 cells (1×10^4 cells) were mixed with the effector cells recovered from mixed lymphocyte culture in a volume of 150 μl. […] Sedimentation of the cells in a v-bottom 96 well plate by brief centrifugation was followed by incubation at 37° C. After 4 h, ^51Cr release in the supernatant from target cells was counted using γ-radiation counter. Spontaneous ^51Cr release was measured by culturing target cells alone. Maximum ^51Cr release was measured by adding 1N hydrochloric acid to the same number of target cells. Cytotoxicity was calculated as percentage cell lysis when spontaneous and maximum ^51Cr release were set to 0% and 100%, respectively.

Take `CCNC(=O)[C@H]1O[C@@H](n2cnc3c(N)ncnc32)[C@H](O)[C@@H]1O` [NECA, 5′-N-ethylcarboxamidoadenosine]: the “Cytotoxicity, % of control” value with P815 mastocytoma (CTL from primary culture with 10^−5 M NECA, effector-target ratio 5:1) was determined as 33%. In addition, the “cytotoxicity against P815” value with P815 mastocytoma (NECA added only for 2 days after restimulation, effector-target ratio 5:1, 2.5:1, 1.25:1) is reported as “not impaired”. The “IFN-γ levels in the culture supernatant after restimulation” value in data set [1] (setting [4]) is recorded as “inhibit”. The figures for the “IFN-γ levels in the culture supernatant, decreased to” value in data set [1] (10^−5 M NECA) and in data set [1] (10^−7 M NECA) were 18% and 44%, respectively. The “proportion of CD8+ T cells in the expanded cells” value in the data set on CD8+ T cells (NECA added only for 2 days after restimulation) was “unchanged from control CTL”. Besides, in the data set with CD8+ T cells, the “reduction of IFN-γ producers” value came to 70%. In addition, the IFN-γ levels came to 3722 pg/mL in the data set on CTL (CTL developed with NECA 0.1 μM (table; 0.1 μM)), 2327 pg/mL with CTL (CTL developed with NECA 1 mM (table; 1 μM)) and 1089 pg/mL in the data set with CTL (CTL developed with NECA 10 mM (table; 10 μM)). Besides, the “IFN-γ levels (%) of corresponding CTL without CGS/NECA” value is listed as 44 ± 12 % in the data set on CTL (setting [5]), 56 ± 8 % in the data set on CTL (setting [6]), 60 ± 8 % with CTL (setting [7]) and 28 ± 7% in the data set with CTL (Control CTL). Moreover, the “IFN-γ levels (%), None (reference = 100)” value in the data set with CTL (setting [5]) was 100 ± 23%; with CTL (setting [6]), 100 ± 19%; in the data set on CTL (setting [7]), 100 ± 5%. Moreover, the IFN-γ production result in the data set with CTL is given as “strongly inhibited”. Moreover, in data set [2], the “increase of cAMP levels” value is 11.1 fold. Moreover, in data set [3] (setting [4]), the “proliferation of CTL after restimulation” value was “inhibit proliferation of CTL”. Also, the “cell number, % of control” value in data set [3] (NECA 0.1 μM) was 78%; in data set [3] (NECA 1 μM) it was 72%; in data set [3] (NECA 10 μM), 68%. Besides, the “Cell proliferation, [3H] thymidine incorporation, decreased to” value in data set [3] (primary mixed lymphocyte culture, 5 days in the presence of NECA (0.1-10 μM)) is 30-40%.

For the compound `CCNC(=O)[C@H]1O[C@@H](n2cnc3c(N)nc(NCCc4ccc(CCC(=O)O)cc4)nc32)[C@H](O)[C@@H]1O` [CGS], the “reduction of IFN-γ producers” value in the data set on CD8+ T cells is reported as 70%. For the same compound, the “IFN-γ levels (%) of corresponding CTL without CGS/NECA” value in the data set with CTL (setting [5]) is 57 ± 8 %; in the data set with CTL (setting [6]), 67 ± 10 %; in the data set with CTL (setting [7]), 80 ± 13 %; in the data set on CTL (Control CTL), 44% and 44 ± 11%. Moreover, the IFN-γ production result in the data set with CTL was “strongly inhibited”. In addition, the “IFN-γ producing capacity retained” value in the data set with CTL (negatively selected NECA-CTL tested for inhibition by CGS) is “up to 80%”. In addition, the “increase of cAMP levels” value in data set [2] was 7.4 fold.
